The record followed here is article PMC7736868, “Fluorescent ligands for dopamine D2/D3 receptors” (Scientific Reports, 2020).

Each structure is given as a SMILES string. Some results are limits rather than exact numbers.

T5 sequence (P50129 whole entry): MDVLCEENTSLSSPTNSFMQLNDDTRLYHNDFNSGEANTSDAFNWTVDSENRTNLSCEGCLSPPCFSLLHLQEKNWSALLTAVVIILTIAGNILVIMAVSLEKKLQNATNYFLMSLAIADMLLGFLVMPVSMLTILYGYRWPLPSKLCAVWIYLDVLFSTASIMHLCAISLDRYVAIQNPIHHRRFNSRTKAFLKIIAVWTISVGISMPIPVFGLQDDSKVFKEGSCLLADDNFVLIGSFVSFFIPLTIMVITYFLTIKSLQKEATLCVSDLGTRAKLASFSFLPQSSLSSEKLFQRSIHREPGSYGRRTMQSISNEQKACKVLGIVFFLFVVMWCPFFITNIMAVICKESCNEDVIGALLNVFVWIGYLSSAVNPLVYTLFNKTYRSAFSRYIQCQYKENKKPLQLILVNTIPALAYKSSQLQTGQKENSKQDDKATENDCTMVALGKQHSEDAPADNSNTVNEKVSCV
Sequence of human D2LR (P14416 whole entry): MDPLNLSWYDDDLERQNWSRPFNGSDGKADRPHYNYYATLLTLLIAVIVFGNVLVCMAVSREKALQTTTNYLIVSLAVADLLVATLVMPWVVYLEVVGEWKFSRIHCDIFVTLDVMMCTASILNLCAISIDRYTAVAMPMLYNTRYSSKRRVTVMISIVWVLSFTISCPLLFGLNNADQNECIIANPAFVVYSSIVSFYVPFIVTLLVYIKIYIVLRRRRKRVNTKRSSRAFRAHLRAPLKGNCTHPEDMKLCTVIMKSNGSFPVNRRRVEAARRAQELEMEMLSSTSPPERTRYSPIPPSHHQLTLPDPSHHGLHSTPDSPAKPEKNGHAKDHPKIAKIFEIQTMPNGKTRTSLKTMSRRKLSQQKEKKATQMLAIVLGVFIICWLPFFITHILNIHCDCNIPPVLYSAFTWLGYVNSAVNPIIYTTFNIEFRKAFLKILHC

In one assay the target is T1, porcine D1R (Sus scrofa, UniProt P50130).
T1 construct: homogenates obtained from porcine striatum; from tissue; host or cells: porcine striatum homogenate
T1 sequence (P50130 whole entry): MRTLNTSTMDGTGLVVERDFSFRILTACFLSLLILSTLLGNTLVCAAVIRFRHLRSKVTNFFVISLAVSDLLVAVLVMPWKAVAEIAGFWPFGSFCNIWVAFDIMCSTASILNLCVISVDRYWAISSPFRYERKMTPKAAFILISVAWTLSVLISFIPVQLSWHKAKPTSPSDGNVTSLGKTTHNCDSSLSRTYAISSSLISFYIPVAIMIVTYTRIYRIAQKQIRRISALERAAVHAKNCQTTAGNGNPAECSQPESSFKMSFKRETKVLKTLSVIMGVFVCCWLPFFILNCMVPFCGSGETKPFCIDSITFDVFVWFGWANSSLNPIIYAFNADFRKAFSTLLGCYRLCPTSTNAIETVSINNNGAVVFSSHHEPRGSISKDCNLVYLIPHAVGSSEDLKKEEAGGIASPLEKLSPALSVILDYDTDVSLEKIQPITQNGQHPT
The assay can be described thus: Radioligand competition, [3H]SCH23390, porcine striatum homogenates. Format: binding. Conditions: [3H]SCH23,390; mean of n experiments; read-out: Ki pD1R.
In the case of `CN(C)c1cccc2c(S(=O)(=O)NCc3ccc(-n4cc(CCCCN5CCN(c6cc(C(F)(F)F)nc(C(C)(C)C)n6)CC5)nn4)cc3)cccc12` [4d], the Ki was over 10000 nM.
Consider `CCCN(CCCCc1cn(-c2ccc(C(=O)NCCCN)cc2)nn1)C1Cc2ccccc2C1` [7a], for which the Ki came to 3600 nM.
The same measure, in the same setting: for `CCCN(CCCCc1cn(-c2ccc(C(=O)NCCCNS(=O)(=O)c3cccc4c(N(C)C)cccc34)cc2)nn1)C1Cc2ccccc2C1` [8a] the value was 1100 nM.

Another assay deals with T2, D2SR (Homo sapiens, UniProt P14416). The experiment in a line: Radioligand competition, [3H]spiperone, CHO cell membranes.
T2 sequence (P14416 1-414 isoform P14416-2): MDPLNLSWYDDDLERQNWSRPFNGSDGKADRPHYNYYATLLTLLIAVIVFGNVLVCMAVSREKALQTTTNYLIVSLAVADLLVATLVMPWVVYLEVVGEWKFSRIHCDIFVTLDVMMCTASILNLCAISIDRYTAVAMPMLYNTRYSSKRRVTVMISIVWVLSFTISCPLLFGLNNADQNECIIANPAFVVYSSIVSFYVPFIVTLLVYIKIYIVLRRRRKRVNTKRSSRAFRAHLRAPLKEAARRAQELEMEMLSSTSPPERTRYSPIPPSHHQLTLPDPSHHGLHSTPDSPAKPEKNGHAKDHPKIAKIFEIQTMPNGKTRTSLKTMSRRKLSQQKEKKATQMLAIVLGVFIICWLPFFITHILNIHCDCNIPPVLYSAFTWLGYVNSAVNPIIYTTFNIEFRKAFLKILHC
Details: not given
`CN(C)c1cccc2c(S(=O)(=O)NCc3ccc(-n4cc(CCCCN5CCN(c6cc(C(F)(F)F)nc(C(C)(C)C)n6)CC5)nn4)cc3)cccc12` [4d] displayed a Ki of 6000 nM.
In the case of `CCCN(CCCCc1cn(-c2ccc(C(=O)NCCCN)cc2)nn1)C1Cc2ccccc2C1` [7a], the Ki came to 1.8 ± 0.2 nM.
Still for that read-out and setting: with `CCCN(CCCCc1cn(-c2ccc(C(=O)NCCCNS(=O)(=O)c3cccc4c(N(C)C)cccc34)cc2)nn1)C1Cc2ccccc2C1` [8a] the figure was 0.44 ± 0.12 nM.

Still in this assay, the particulars now being: 4d versus 2d.
With `CN(C)c1cccc2c(S(=O)(=O)NCc3ccc(-n4cc(CCCCN5CCN(c6cc(C(F)(F)F)nc(C(C)(C)C)n6)CC5)nn4)cc3)cccc12` [4d], the “decrease of D2SR affinity by introduction of the dansyl moiety (factor)” value was ~ 20.

A further assay deals with T3, human D4R (Homo sapiens, UniProt P21917).
T3 sequence (P21917 1-419): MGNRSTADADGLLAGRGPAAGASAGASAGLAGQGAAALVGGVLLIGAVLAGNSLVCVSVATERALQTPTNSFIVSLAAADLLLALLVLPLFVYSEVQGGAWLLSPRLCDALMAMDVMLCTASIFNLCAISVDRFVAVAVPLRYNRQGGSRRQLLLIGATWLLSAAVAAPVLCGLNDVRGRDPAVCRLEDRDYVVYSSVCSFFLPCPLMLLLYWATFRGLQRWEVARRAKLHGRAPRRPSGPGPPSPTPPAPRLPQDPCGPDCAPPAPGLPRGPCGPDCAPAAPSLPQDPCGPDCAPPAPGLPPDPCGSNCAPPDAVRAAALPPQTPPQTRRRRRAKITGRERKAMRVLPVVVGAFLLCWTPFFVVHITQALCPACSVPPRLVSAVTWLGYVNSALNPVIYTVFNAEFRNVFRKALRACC
The description is as above.
Details: not given
`CN(C)c1cccc2c(S(=O)(=O)NCc3ccc(-n4cc(CCCCN5CCN(c6cc(C(F)(F)F)nc(C(C)(C)C)n6)CC5)nn4)cc3)cccc12` [4d] gave a Ki of over 10000 nM.
For `CCCN(CCCCc1cn(-c2ccc(C(=O)NCCCN)cc2)nn1)C1Cc2ccccc2C1` [7a], affinity was put at a Ki of 8.5 ± 0.8 nM.
For `CCCN(CCCCc1cn(-c2ccc(C(=O)NCCCNS(=O)(=O)c3cccc4c(N(C)C)cccc34)cc2)nn1)C1Cc2ccccc2C1` [8a], the Ki turned out to be 10 ± 4 nM.

The next assay addresses human D2LR (Homo sapiens, UniProt P14416). The assay is described as above.
Details: not given
As for `CN(C)c1cccc2c(S(=O)(=O)NCc3ccc(-n4cc(CCCCN5CCN(c6cc(C(F)(F)F)nc(C(C)(C)C)n6)CC5)nn4)cc3)cccc12` [4d], the Ki worked out at 7600 nM.
On to `CCCN(CCCCc1cn(-c2ccc(C(=O)NCCCN)cc2)nn1)C1Cc2ccccc2C1` [7a], for which the Ki was 3.5 ± 0.4 nM.
The same measure, in the same setting: for `CCCN(CCCCc1cn(-c2ccc(C(=O)NCCCNS(=O)(=O)c3cccc4c(N(C)C)cccc34)cc2)nn1)C1Cc2ccccc2C1` [8a] the value was 1.2 ± 0.2 nM.

Staying with this assay, now noted: 4d versus 2d.
On to `CN(C)c1cccc2c(S(=O)(=O)NCc3ccc(-n4cc(CCCCN5CCN(c6cc(C(F)(F)F)nc(C(C)(C)C)n6)CC5)nn4)cc3)cccc12` [4d], for which the “decrease of D2LR affinity by introduction of the dansyl moiety (factor)” value is ~ 20.

For the next assay, the target named is T4, porcine 5-HT1AR (Sus scrofa, UniProt A0A4X1UTF5).
T4 construct: homogenates of porcine cerebral cortex; from tissue; host or cells: porcine cerebral cortex homogenate
T4 sequence (A0A4X1UTF5 1-422): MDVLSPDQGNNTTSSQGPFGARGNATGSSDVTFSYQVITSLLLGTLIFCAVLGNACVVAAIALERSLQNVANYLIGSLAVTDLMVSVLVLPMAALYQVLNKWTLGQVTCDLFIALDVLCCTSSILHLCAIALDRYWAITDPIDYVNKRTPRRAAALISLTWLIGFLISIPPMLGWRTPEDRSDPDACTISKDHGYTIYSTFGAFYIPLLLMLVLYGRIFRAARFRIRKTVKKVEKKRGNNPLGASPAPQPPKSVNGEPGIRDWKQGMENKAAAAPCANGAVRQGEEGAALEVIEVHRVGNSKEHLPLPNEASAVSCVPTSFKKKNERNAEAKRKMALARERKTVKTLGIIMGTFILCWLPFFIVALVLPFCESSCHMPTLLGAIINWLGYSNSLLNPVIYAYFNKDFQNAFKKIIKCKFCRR
The assay can be described thus: Radioligand competition, [3H]WAY100,635, porcine cerebral cortex homogenates. The assay is classed as binding. Conditions: mean of n experiments, read-out: Ki p5-HT1AR.
Turning to `CN(C)c1cccc2c(S(=O)(=O)NCc3ccc(-n4cc(CCCCN5CCN(c6cc(C(F)(F)F)nc(C(C)(C)C)n6)CC5)nn4)cc3)cccc12` [4d], the Ki was over 10000 nM.
On to `CCCN(CCCCc1cn(-c2ccc(C(=O)NCCCN)cc2)nn1)C1Cc2ccccc2C1` [7a], for which the Ki worked out at 13 nM.
Still for that read-out and setting: with `CCCN(CCCCc1cn(-c2ccc(C(=O)NCCCNS(=O)(=O)c3cccc4c(N(C)C)cccc34)cc2)nn1)C1Cc2ccccc2C1` [8a] the figure was 70 nM.

The target in another assay is human D3R (Homo sapiens, UniProt P35462). The experiment in a line: Radioligand competition, [3H]spiperone, CHO cell membranes.
Sequence of human D3R (P35462 whole entry): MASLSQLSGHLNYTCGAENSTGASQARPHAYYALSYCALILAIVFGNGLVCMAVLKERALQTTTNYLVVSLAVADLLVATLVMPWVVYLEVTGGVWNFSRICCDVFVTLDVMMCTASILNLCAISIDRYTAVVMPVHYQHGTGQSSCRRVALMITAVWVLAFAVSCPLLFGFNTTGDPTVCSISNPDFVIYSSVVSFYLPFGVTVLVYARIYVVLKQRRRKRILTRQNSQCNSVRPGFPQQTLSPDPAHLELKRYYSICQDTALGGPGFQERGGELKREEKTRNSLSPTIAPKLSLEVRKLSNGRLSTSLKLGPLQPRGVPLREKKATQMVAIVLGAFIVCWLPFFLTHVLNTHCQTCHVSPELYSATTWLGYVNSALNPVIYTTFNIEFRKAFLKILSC
Details: not given
For the molecule `CN(C)c1cccc2c(S(=O)(=O)NCc3ccc(-n4cc(CCCCN5CCN(c6cc(C(F)(F)F)nc(C(C)(C)C)n6)CC5)nn4)cc3)cccc12` [4d], the affinity, expressed as Ki, was 11 ± 2 nM.
Still for that read-out and setting: for `CCCN(CCCCc1cn(-c2ccc(C(=O)NCCCN)cc2)nn1)C1Cc2ccccc2C1` [7a] the value was 0.26 ± 0.03 nM; for `CCCN(CCCCc1cn(-c2ccc(C(=O)NCCCNS(=O)(=O)c3cccc4c(N(C)C)cccc34)cc2)nn1)C1Cc2ccccc2C1` [8a], 0.32 ± 0.05 nM.

A further assay concerns the target T5, porcine 5-HT2R (Sus scrofa, UniProt P50129).
T5 construct: homogenates of porcine cerebral cortex; from tissue; host or cells: porcine cerebral cortex homogenate
The experiment in a line: Radioligand competition, [3H]ketanserin, porcine cerebral cortex homogenates. Format: binding. As to conditions: mean of n experiments, read-out: Ki p5-HT2R.
With `CN(C)c1cccc2c(S(=O)(=O)NCc3ccc(-n4cc(CCCCN5CCN(c6cc(C(F)(F)F)nc(C(C)(C)C)n6)CC5)nn4)cc3)cccc12` [4d], the Ki was over 10000 nM.
The same measure, in the same setting: for `CCCN(CCCCc1cn(-c2ccc(C(=O)NCCCN)cc2)nn1)C1Cc2ccccc2C1` [7a] the value was 400 nM.
Same read-out and setting: for `CCCN(CCCCc1cn(-c2ccc(C(=O)NCCCNS(=O)(=O)c3cccc4c(N(C)C)cccc34)cc2)nn1)C1Cc2ccccc2C1` [8a] the value was 690 nM.

The target in the next assay is T2, D2SR. The assay can be described thus: β-arrestin-2 recruitment (Pathhunter, DiscoverX), HEK293 cells, GRK2 coexpressed. As to conditions: mean ± SEM. Format: cell-based. The arrangement: expressed in transfected cells.
`CCCN(CCCCc1cn(-c2ccc(C(=O)NCCCNS(=O)(=O)c3cccc4c(N(C)C)cccc34)cc2)nn1)C1Cc2ccccc2C1` [8a] registered an EC50 of 51 ± 11 nM.

The same assay, now with this note: read-out: Emax β-arrestin-2 recruitment at D2SR, reference agonist quinpirole.
Regarding `CCCN(CCCCc1cn(-c2ccc(C(=O)NCCCNS(=O)(=O)c3cccc4c(N(C)C)cccc34)cc2)nn1)C1Cc2ccccc2C1` [8a], the Emax was 98 ± 2%.

Another assay deals with porcine α1-AR. The assay can be described thus: Radioligand competition, [3H]prazosin, porcine cerebral cortex homogenates. As to conditions: read-out: Ki pα1-AR, mean of n experiments.
`CN(C)c1cccc2c(S(=O)(=O)NCc3ccc(-n4cc(CCCCN5CCN(c6cc(C(F)(F)F)nc(C(C)(C)C)n6)CC5)nn4)cc3)cccc12` [4d]: the Ki worked out at 3000 nM.
As for `CCCN(CCCCc1cn(-c2ccc(C(=O)NCCCN)cc2)nn1)C1Cc2ccccc2C1` [7a], the Ki was determined as 37 nM.
Still for that read-out and setting: for `CCCN(CCCCc1cn(-c2ccc(C(=O)NCCCNS(=O)(=O)c3cccc4c(N(C)C)cccc34)cc2)nn1)C1Cc2ccccc2C1` [8a] the value was 22 nM.
